Assay results as given in publication PMC7718273 (Scientific Reports, 2020).
Converted amounts (≈) assume the structure as drawn. “And” between values parts separate entries of the source, which are not always exact repeats. Equal entries are not always repeated. Where two headings read alike, the source gives them in different places.

What was measured:
[1] = Plasma protein binding, rat; type: in vitro ADME; settings: rat (R), read-out: Plasma protein binding (% bound) (converted)
Procedure: Protein binding was conducted as described. Compound solutions prepared in DMSO were diluted in phosphate buffer (final concentration: 1 µg/mL), and added into human plasma (total volume: 1 mL). Aliquots were then transferred in duplicate to: (i) a final concentration plate that was immediately quenched with 23.6 ng/mL internal standard (IS, chlorpropamide) in ACN, (ii) a degradation control, which was placed in a water bath at 37℃ for 4 h, and (iii) ultracentrifuge tubes, which were centrifuged for 5 min at 4℃ (14,000 rpm). All reactions were stopped by the addition of ACN containing 23.6 ng/mL chlorpropamide. The samples were subjected to LC–MS/MS analysis.

Thermodynamic solubility = type: physicochemical; settings: thermodynamic from solid
FAP = assay: In vivo study using cynomolgus monkeys: plasma FAP activity; set-up: species or system cynomolgus monkey; settings: 50 mg/kg intranasal
[2] = Microsomal stability, monkey; type: in vitro ADME; settings: liver microsomes, pH 7.4, monkey (Mk), 0.5 mg/mL, NADPH, read-out: Microsomal stability (% remaining at 60 min)
Procedure: (§1) Aliquots were then transferred in duplicate to: (i) a final concentration plate that was immediately quenched with 23.6 ng/mL internal standard (IS, chlorpropamide) in acetonitrile (ACN) or (ii) tubes, which were centrifuged for 5 min at 4℃ (14,000 rpm). The samples were subjected to LC–MS/MS analysis on an AB Sciex 4000 Q Trap hybrid triple quadrupole linear ion-trap MS (AB Sciex, Framingham, MA) coupled to an Agilent 1200 HPLC (Agilent Tech. Santa Clara, CA) with a reverse-phase Kinetex XB-C18 column (2.1 × 100 mm, 2.6 µm; Phenomenex). Mobile phases were comprised of 0.1% formic acid (FA) in water (A) and 0.1 FA in ACN (B). Data analysis was performed using […] (Ver. 1.6.1).

Plasma stability, human = type: in vitro ADME; settings: pH 7.4, read-out: Plasma stability (% remaining at 60 min)
Procedure: as §1

CYP 2C19 = target: T1, CYP 2C19 (Homo sapiens, UniProt P33261); assay: CYPs inhibition, human liver microsome, substrate cocktail; type: in vitro ADME; settings: 3rd of 5 values; head prints D; footnote lists CYPs 1A2, 2C9, 2C19, 2D6, 3A4; read-out: CYPs inhibition (IC50, µM) (H/Mk/D/R/M)
T1 construct: from tissue; host or cells: human liver microsomes
T1 sequence (P33261 whole entry): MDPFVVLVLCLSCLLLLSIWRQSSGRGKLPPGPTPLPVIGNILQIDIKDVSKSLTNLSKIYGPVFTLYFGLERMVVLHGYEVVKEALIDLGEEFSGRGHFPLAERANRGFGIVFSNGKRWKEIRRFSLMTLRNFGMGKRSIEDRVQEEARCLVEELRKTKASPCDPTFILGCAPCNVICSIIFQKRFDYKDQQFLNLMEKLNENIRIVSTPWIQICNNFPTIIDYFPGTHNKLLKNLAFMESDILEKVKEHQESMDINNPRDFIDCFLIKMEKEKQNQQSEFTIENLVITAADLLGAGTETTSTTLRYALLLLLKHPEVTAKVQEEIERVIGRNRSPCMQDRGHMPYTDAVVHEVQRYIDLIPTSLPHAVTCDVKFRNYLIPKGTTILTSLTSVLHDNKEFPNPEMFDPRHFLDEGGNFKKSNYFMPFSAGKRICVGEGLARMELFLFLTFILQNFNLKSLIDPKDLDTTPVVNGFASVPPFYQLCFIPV
Description: (§2) Metabolites of the substrate probes were simultaneously analyzed by multiple-reaction monitoring using routine LC-MS/MS.

CYP 3A4 = target: T2, CYP 3A4 (Homo sapiens, UniProt P08684); assay: as above; type: in vitro ADME; settings: 5th of 5 values; head prints M; footnote lists CYPs 1A2, 2C9, 2C19, 2D6, 3A4; read-out: CYPs inhibition (IC50, µM) (H/Mk/D/R/M)
T2 construct: from tissue; host or cells: human liver microsomes
T2 sequence (P08684 whole entry): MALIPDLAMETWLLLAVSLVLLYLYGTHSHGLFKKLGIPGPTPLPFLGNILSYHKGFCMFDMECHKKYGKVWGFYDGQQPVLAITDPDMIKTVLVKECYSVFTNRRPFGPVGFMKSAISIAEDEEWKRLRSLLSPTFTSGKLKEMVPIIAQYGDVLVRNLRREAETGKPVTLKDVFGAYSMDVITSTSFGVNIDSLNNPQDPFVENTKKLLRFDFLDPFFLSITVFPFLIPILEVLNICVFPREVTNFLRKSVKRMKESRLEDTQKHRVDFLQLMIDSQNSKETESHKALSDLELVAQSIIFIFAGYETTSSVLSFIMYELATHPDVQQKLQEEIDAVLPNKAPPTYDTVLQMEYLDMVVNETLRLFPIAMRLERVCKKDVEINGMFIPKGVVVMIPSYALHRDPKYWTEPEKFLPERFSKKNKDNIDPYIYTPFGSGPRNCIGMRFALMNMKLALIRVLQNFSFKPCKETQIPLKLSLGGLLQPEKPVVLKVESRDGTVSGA
Description: as §2

DPP4 = target: T3, DPP4 (Homo sapiens, UniProt P27487); assay: DPP4 activity, fluorometric assay with AMC substrate; type: biochemical; settings: fluorometric assay using AMC substrates
T3 construct: purchased R&D Systems 9168-SE
T3 sequence (P27487 whole entry): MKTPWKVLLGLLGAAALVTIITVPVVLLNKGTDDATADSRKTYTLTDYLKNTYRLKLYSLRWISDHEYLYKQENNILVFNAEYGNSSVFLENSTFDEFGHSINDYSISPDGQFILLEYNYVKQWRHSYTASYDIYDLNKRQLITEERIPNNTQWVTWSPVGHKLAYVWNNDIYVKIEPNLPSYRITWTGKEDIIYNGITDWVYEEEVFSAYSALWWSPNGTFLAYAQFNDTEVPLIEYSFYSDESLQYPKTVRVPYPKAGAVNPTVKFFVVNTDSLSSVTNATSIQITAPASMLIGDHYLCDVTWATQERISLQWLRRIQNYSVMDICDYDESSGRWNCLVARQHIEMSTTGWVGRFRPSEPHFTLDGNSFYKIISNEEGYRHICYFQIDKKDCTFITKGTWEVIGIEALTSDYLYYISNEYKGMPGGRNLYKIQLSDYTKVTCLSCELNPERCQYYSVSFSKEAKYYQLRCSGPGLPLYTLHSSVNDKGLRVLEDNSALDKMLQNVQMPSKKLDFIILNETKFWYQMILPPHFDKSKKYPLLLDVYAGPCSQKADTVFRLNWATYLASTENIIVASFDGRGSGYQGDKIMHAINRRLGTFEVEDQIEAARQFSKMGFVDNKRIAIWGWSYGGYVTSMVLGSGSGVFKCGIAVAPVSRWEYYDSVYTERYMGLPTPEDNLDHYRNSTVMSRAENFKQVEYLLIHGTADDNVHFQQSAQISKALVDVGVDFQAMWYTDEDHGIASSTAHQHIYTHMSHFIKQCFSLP
Procedure: (§3) Recombinant human PREP (hPREP) (catalog no. 4308-SE), hDPP2/7 (catalog no. 3438-SE), hDPP9 (catalog no. 5419-SE), hFAP (catalog no. 3715-SE), and hDPP4 (catalog no. 9168-SE) proteins were from R&D Systems (Minneapolis, MN). Human FGF21 (catalog no. CRF159C) was from Cell Science (Newburyport, MA).
(§4) FAP enzyme activities were assayed in 20 mM Tris/HCl, 0.1 M NaCl, 1 mM EDTA (pH 8.0) in the presence of 40 μM Suc-Gly-Pro-Leu-Gly-Pro-AMC (#I-1350.0100, BACHEM, Bubendorf, Switzerland) and hFAP in a total volume of 100 µL. […] The inhibitor concentrations ranged from 100 μM to 0.03 nM, and its IC50 values were computed with commercially available curve-fitting programs such as the SigmaPlot. Other protease activities were determined in a similar manner.

[3] = tested on: Normal cynomolgus monkeys; assay: In vivo study using cynomolgus monkeys: plasma concentration and intact FGF21; settings: cynomolgus monkeys (n = 3), 50 mg/kg intranasal, range of individual animals
Procedure: Intact FGF21 levels in plasma were measured by ELISA.
FAP activity and intact FGF21 concentrations were measured as described above.

hFAP = target: T4, hFAP (Homo sapiens, UniProt Q12884); assay: FAP enzyme activity, fluorometric assay with AMC substrate; type: biochemical
T4 construct: purchased R&D Systems 3715-SE
T4 sequence (Q12884 whole entry): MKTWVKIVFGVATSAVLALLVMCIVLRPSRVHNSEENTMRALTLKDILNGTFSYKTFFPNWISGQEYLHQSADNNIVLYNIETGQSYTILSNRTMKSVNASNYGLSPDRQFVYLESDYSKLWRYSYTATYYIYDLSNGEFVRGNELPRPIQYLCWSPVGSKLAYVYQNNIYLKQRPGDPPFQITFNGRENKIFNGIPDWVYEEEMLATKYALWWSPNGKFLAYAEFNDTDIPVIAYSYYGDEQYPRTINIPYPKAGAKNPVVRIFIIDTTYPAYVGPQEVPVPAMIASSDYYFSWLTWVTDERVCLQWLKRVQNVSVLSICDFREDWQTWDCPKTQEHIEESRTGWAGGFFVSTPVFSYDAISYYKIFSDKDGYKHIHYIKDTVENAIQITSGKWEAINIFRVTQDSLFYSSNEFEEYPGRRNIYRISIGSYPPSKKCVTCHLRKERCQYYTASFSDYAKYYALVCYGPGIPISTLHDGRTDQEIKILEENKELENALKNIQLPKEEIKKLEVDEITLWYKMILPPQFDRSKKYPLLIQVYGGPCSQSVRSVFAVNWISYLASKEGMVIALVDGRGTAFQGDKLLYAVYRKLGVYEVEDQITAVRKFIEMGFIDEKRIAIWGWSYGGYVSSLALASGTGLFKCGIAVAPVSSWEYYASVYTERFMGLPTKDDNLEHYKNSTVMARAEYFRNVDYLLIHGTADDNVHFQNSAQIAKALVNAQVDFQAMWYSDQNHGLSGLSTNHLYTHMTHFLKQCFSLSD
Procedure: as §3, §4

DPP9 = target: T5, DPP9 (Homo sapiens, UniProt Q86TI2); assay: DPP9 activity, fluorometric assay with AMC substrate; type: biochemical; settings: fluorometric assay using AMC substrates
T5 construct: purchased R&D Systems 5419-SE
T5 sequence (Q86TI2 whole entry): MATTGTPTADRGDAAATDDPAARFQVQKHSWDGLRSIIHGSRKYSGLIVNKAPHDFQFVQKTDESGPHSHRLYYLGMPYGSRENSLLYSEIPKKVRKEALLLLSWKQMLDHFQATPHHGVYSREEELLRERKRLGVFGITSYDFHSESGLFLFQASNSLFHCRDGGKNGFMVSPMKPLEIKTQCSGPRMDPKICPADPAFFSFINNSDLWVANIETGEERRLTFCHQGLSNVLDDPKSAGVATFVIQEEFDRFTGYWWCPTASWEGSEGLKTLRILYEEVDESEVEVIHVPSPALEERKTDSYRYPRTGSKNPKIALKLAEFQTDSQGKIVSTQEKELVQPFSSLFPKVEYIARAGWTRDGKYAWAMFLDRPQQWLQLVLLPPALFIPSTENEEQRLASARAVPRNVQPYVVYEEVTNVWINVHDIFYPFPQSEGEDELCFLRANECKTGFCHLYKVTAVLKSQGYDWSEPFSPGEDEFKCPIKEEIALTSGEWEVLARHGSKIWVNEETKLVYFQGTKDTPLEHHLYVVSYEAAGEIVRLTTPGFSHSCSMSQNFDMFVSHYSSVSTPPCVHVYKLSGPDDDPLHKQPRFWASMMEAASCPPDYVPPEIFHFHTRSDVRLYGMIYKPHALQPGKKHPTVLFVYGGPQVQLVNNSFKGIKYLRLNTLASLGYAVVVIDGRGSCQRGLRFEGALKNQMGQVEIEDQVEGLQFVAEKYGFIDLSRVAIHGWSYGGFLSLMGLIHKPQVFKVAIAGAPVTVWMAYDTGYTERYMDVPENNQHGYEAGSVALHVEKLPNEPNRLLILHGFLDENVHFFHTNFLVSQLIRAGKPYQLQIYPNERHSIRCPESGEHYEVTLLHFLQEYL
Procedure: as §3, §4

CDAHFD NASH mouse model = assay: In vivo study using CDAHFD mice (NASH model); set-up: species or system C57BL/6J mice
Procedure: C57BL/6J mice were fed normal chow diet (n = 5) or choline-deficient, L-amino acid-defined, high-fat diet (CDAHFD) for 4 weeks to induce NASH (n = 8–10/group). […] (a) Relative FAP activity was assessed by FRET-quench and serum FGF21 level at week 14. […] (c) Steatosis scores ranged from 0 to 3 (normal = 0, minimal = 1, moderate = 2, marked = 3) were determined. Hepatic steatosis and fibrosis (Picrosirius red stain) were analyzed in a blinded manner or by digital image analyzer. (d–e) Histological evaluations of liver tissue were performed in each group. Paraffin-embedded liver sections were stained with H&E (d) and Sirius red (e). Representative photographs of each group were presented. Images were obtained at 100x (Scale bar = 50 µm).
Male C57BL/6J mice (5 weeks of age) were fed with a CDAHFD consisting of 60% kcal fat and 0.1% methionine. […] For the CDAHFD model, compound treatments were started at the beginning of week 4 on the diet and continued until week 14. […] Liver tissue was then collected. All other measurements were done similarly as described above. Staining was performed using H&E and Picrosirius red as described previously. Areas of positive Sirius red were quantified by computer-based morphometric analysis.

Plasma stability, mouse = type: in vitro ADME; settings: pH 7.4, mouse (M), read-out: Plasma stability (% remaining at 60 min)
Procedure: as §1

[4] = 10 and 30 mg/kg, week 14, vs vehicle

Work on N#Cc1ccc(Cc2nc(C(=O)NCC(=O)N3CC(F)(F)C[C@H]3C#N)cs2)cc1 [BR103354, (S)-N-(2-(2-cyano-4,4-difluoropyrrolidin-1-yl)-2-oxoethyl)-2-(4-cyanobenzyl)thiazole-4-carboxamide] yielded a fraction unbound at 1 µg/mL [1] of 0.4, a solubility thermodynamic (Thermodynamic solubility; aqueous buffer, pH 3.0) of 165 µg/mL (≈ 397 µM) and a solubility thermodynamic (Thermodynamic solubility; aqueous buffer, pH 7.0) of 141 µg/mL (≈ 339 µM). The solubility thermodynamic (Thermodynamic solubility; simulated gastric fluid, pH 1.0) was 197 µg/mL (≈ 474 µM), the “inhibition of FAP activity, maximal” value (FAP; cynomolgus monkeys (n = 3), range of individual animals) was 65–83% and the “time of maximal effect on FAP activity and intact FGF21” value (FAP; cynomolgus monkeys, 50 mg/kg) was 1 h and 2 h. For the same compound, the remaining at 1 h, 1 µM [2] was 81%, the remaining at 1 h, 1 µM (Plasma stability, human) was over 100% and the IC50 (CYP 2C19) was over 50 µM. For the same compound, the IC50 (CYP 3A4) was over 50 µM, the IC50 (DPP4) was over 100000 nM and the “increase of intact FGF21, maximal” value [3] was 1.5–3.5 fold. It also gave an IC50 (hFAP; 40 μM Suc-Gly-Pro-Leu-Gly-Pro-AMC, 60 min at 37 °C, read-out: IC50 (nM) FAP) of 14 nM, an IC50 (hFAP; various assays: SDS-PAGE shift, AMC-coupled substrate, serum samples from different species, read-out: IC50 values on FAP, all measurements) of 10 to 30 nM and an IC50 (DPP9) of 5040 nM. The “liver fibrosis (Picrosirius red staining)” value (CDAHFD NASH mouse model; 10 and 30 mg/kg) was “significant reduction”, the “increase of serum FGF21 levels” value (CDAHFD NASH mouse model; 10 and 30 mg/kg p.o. for 10 weeks) was 1.5–1.9 folds and the Steatosis scores (CDAHFD NASH mouse model; 10 and 30 mg/kg, score 0 to 3) was “significant reduction”. For the same compound, the TG (CDAHFD NASH mouse model; [4]) was “reduced”, the “blood ALT levels” value (CDAHFD NASH mouse model; [4]) was “reduced” and the “blood AST levels” value (CDAHFD NASH mouse model; [4]) was “reduced”. The glucose levels (CDAHFD NASH mouse model; [4]) was “reduced”, the total cholesterol (CDAHFD NASH mouse model; [4]) was “reduced” and the remaining at 1 h, 1 µM (Plasma stability, mouse) was 94%.
